Laboratory results: US9618513B2, “Compositions and methods for detecting and treating colorectal cancer” (The Regents of the University of Michigan, priority 2014, dated 2017)
Entries after “also recorded” stand apart in the source; their conditions may differ.

Legend:
H3K79me2 (DOT1L) = assay: Histone marks by western blot in colon cancer cells; type: cell-based, human
Description: (A) IL-22 induces H3K79me2 in colon cancer cells. Colon cancer cells were treated with IL-22 for 48 hours. Total histone modifications were analyzed by western blot. (B, C) DOT1L inhibitor, EPZ004777 suppresses colon cancer sphere formation induced by IL-22. Colon cancer sphere assay was performed in the presence of IL-22 and EPZ004777. Sphere numbers were recorded. DLD-1 cells (B), primary colon cancer cells (C). (n=5, P<0.05). (D, E) IL-22 stimulates DOT1L complex gene expression. Colon cancer cells were cultured for 12 hours with IL-22. DOT1L complex gene expression was quantified by real-time PCR. DLD-1 cells (D), primary colon cancer cells (E). (n=3, P<0.05). (F) DOT1L knock down results in reduced colon cancer sphere formation induced by IL-22. Colon cancer sphere assay was performed with colon cancer cells expressing sh-DOT1L or vector in the presence of IL-22. Sphere numbers were recorded. (n=5, P<0.05). (G-I), IL-22 causes higher occupancy of H3K79me2 on core stem cell gene promoters. H3K79me2-ChIP assay was performed in DLD-1 colon cancer cells cultured with IL-22. One of 3 experiments is shown. […]
DLD1 and primary colon cancer cells (#2) were cultured with different concentrations of EPZ004777. Histone marks were detected by western blot. […]
Colon cancer cells were transfected with control vectors or the shDOT1L vector. Histone marks were detected by Western blot. […]

DLD-1 colon cancer cells = assay: Colon cancer sphere assay, DLD-1 cells; type: cell-based, human
Excerpt: (A), IL-22 is expressed in colon cancer tissues. IL-22 mRNA was detected by real-time PCR in colon cancer tissues and peripheral blood. *P<0.05 compared to blood, 20 colon cancer patients. (B-D), Endogenous IL-22 promotes colon carcinogenesis. Single cells (10^7) isolated from colon cancer tissue were mixed with anti-IL-22 antibody or control mAb, and then subcutaneously injected to NSG mice. Tumor growth (B), incidence (C), and animal survival (D) are shown. (P<0.05 for all, n=5 per group). (E-G) Recombinant IL-22 promotes colon carcinogenesis. DLD-1 colon cancer cells (10^5) were pre-incubated with IL-22 (20 ng/ml) for 1 hour, and then subcutaneously injected to NSG mice. Tumor growth (E), incidence (F), and animal survival (G) are shown. (P<0.05 for all, n=5 per group). (H, I) IL-22 enhances colon cancer sphere formation. DLD-1 colon cancer cells were pre-incubated for 24 hours with IL-22. […] ALDH activity was determined by FACS based on aldefluor fluorescence. […] Results are expressed as fold changes of ALDH expression. […] The mRNA of stem cell core gene was detected by real-time PCR (K) and proteins were detected by western blotting (L, M). […]
(A) IL-22 induces H3K79me2 in colon cancer cells. […] Total histone modifications were analyzed by western blot. […] Sphere numbers were recorded. […] DOT1L complex gene expression was quantified by real-time PCR. […] Sphere numbers were recorded. […]

Compound | H3K79me2 / H3K79 methylation (H3K79me2 (DOT1L); DLD1 and primary colon cancer cells (#2), different concentrations) | sphere formation induced by IL-22 (DLD-1 colon cancer cells; DLD-1 cells, in the presence of IL-22, inhibitor 10 uM) | dimethylation of histone 3 lysine 79 (H3K79me2), total (H3K79me2 (DOT1L); colon cancer cells, IL-22 48 hours) | tumor sphere formation (DLD-1 colon cancer cells; DLD-1 pre-incubated 24 hours with IL-22, 2,000 cells)
CC(C)N(CCCNC(=O)Nc1ccc(C(C)(C)C)cc1)C[C@H]1O[C@@H](n2ccc3c(N)ncnc32)[C@H](O)[C@@H]1O [EPZ004777] | reduced; also recorded: specifically inhibits | suppressed | – | –
IL-22: recombinant IL-22 (R&D systems), cytokine interleukin-22 | – | – | selectively increased | promoted tumor sphere formation in a dose dependent manner
